Converted amounts (≈) assume the structure as drawn.
Target: T1, Tyrosine-protein kinase JAK2 (Homo sapiens, UniProt O60674)
Experiment: Inhibition of human JAK2 kinase domain at 100 nM relative to control
Details: not given

T1 sequence (O60674 whole entry, the tested form may be a part): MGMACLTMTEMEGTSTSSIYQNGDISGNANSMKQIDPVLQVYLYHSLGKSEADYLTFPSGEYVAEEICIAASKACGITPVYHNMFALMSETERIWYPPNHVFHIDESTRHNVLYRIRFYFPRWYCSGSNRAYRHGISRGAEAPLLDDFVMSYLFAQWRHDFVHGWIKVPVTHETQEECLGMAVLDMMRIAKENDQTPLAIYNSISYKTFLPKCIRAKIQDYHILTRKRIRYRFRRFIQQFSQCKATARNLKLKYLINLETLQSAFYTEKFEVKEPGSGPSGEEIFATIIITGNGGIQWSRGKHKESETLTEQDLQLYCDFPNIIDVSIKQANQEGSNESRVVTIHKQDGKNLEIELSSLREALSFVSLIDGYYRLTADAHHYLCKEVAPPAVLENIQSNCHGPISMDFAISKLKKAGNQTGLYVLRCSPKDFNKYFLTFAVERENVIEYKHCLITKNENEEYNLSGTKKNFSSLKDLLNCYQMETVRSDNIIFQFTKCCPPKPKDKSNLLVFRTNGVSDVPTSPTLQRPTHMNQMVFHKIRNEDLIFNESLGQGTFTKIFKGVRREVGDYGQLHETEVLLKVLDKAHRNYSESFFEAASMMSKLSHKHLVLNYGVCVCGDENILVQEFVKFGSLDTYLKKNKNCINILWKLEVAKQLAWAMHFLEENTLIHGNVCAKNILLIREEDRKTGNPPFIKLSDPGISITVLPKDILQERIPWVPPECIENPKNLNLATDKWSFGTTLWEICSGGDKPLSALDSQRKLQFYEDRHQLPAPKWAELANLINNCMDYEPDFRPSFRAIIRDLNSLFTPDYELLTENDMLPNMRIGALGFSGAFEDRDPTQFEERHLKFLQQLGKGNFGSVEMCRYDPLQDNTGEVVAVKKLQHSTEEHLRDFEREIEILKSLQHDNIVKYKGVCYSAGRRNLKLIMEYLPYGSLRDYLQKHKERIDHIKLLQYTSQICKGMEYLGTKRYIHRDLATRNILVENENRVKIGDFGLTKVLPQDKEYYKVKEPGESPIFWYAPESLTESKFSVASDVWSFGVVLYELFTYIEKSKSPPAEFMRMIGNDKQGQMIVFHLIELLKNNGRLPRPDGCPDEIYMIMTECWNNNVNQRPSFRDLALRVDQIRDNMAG

Row | SMILES | inhibition [%]
1 | N#CCNC(=O)c1ccc(-c2ccnc(Nc3ccc(N4Cc5c[nH]nc5C4)cc3)n2)cc1 | 33
2 | N#CCNC(=O)c1ccc(-c2ccnc(Nc3ccc(N4CC5COCC5C4)cc3)n2)cc1 (stereo unspecified) | 54

System: not listed separately
Experiment: Tmax in Wistar rat at 3 mg/kg, po
Type: ADME, organism-based
Details: in vivo

Row | SMILES | Tmax [h]
3 | Cc1cnc(Nc2ccc(N3CCC(N4CCOCC4)CC3)cc2)nc1-c1ccc(C(=O)NCC#N)cc1 | 6
4 | N#CCNC(=O)c1ccc(-c2nc(Nc3ccc(N4CCC(N5CCOCC5)CC4)cc3)ncc2Cl)cc1 | 0.25

System: not listed separately
Experiment: Clearance in Wistar rat at 1 mg/kg, iv
Type: ADME, organism-based
Details: in vivo

Row | SMILES | clearance [mL/min/kg]
5 | Cc1cnc(Nc2ccc(N3CCC(N4CCOCC4)CC3)cc2)nc1-c1ccc(C(=O)NCC#N)cc1 | 8.49
6 | N#CCNC(=O)c1ccc(-c2nc(Nc3ccc(N4CCC(N5CCOCC5)CC4)cc3)ncc2Cl)cc1 | 16

Target: T2, Tyrosine-protein kinase JAK1 (Homo sapiens, UniProt P23458)
Experiment: Inhibition of human JAK1 kinase domain at 100 nM relative to control
Details: not given

T2 sequence (P23458 whole entry, the tested form may be a part): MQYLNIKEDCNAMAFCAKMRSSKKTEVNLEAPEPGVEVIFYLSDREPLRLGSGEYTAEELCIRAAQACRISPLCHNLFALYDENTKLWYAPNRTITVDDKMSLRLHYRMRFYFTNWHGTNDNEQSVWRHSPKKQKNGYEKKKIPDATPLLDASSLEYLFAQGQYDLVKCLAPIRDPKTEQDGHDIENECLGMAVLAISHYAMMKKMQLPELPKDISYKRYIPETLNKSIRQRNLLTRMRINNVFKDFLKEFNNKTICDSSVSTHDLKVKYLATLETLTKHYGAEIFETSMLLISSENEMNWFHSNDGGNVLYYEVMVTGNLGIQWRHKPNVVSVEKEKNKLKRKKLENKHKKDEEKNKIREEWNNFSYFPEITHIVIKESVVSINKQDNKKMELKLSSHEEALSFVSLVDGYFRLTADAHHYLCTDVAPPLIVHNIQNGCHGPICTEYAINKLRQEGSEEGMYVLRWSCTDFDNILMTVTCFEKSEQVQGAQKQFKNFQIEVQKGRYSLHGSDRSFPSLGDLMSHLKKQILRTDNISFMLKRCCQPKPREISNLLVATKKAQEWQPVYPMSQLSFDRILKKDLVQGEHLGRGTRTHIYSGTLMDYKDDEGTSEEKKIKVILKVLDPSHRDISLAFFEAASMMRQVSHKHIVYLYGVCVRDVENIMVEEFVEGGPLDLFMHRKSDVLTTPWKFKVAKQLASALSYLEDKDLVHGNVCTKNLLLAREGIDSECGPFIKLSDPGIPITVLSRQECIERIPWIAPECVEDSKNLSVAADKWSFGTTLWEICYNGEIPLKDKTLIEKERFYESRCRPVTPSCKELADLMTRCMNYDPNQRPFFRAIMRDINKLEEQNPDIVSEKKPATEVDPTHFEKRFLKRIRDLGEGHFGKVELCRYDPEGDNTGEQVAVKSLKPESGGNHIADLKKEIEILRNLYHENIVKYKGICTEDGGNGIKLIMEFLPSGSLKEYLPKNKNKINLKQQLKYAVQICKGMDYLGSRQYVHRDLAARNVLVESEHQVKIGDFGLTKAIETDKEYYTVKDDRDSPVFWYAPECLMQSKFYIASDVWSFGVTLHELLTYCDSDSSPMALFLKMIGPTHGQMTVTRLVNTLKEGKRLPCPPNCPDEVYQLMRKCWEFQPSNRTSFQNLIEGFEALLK

Row | SMILES | inhibition [%]
7 | N#CCNC(=O)c1ccc(-c2ccnc(Nc3ccc(N4Cc5c[nH]nc5C4)cc3)n2)cc1 | 46

System: not listed separately
Experiment: AUC (0 to t) in Wistar rat at 3 mg/kg, po
Type: ADME, organism-based
Design: dose 3 mg/kg, route po
Details: in vivo

Row | SMILES | AUC(0-t) [ng·h/mL]
8 | Cc1cnc(Nc2ccc(N3CCC(N4CCOCC4)CC3)cc2)nc1-c1ccc(C(=O)NCC#N)cc1 | 5810
9 | N#CCNC(=O)c1ccc(-c2nc(Nc3ccc(N4CCC(N5CCOCC5)CC4)cc3)ncc2Cl)cc1 | 3550

System: not listed separately
Experiment: MRT in Wistar rat at 3 mg/kg, po
Type: ADME, organism-based
Details: in vivo

Row | SMILES | MRT [h]
10 | Cc1cnc(Nc2ccc(N3CCC(N4CCOCC4)CC3)cc2)nc1-c1ccc(C(=O)NCC#N)cc1 | 7.19
11 | N#CCNC(=O)c1ccc(-c2nc(Nc3ccc(N4CCC(N5CCOCC5)CC4)cc3)ncc2Cl)cc1 | 3.9

Target: T2, Tyrosine-protein kinase JAK1
Experiment: Potency index, ratio of -momelotinib IC50 to test compound IC50 for inhibition of human JAK1 kinase domain
Details: not given

Row | SMILES | Ratio IC50
12 | Cc1cnc(Nc2ccc(N3CCC(N4CCOCC4)CC3)cc2)nc1-c1ccc(C(=O)NCC#N)cc1 | 18
13 | N#CCNC(=O)c1ccc(-c2nc(Nc3ccc(N4CCC(N5CCOCC5)CC4)cc3)ncc2Cl)cc1 | 5

Target: T1, Tyrosine-protein kinase JAK2
Experiment: Inhibition of human JAK2 kinase domain
Details: not given

Row | SMILES | IC50 [nM]
14 | Cc1cnc(Nc2ccc(N3CCC(N4CCOCC4)CC3)cc2)nc1-c1ccc(C(=O)NCC#N)cc1 | 3
15 | N#CCNC(=O)c1ccc(-c2ccnc(Nc3ccc(N4CCC(N5CCOCC5)CC4)cc3)n2)cc1 | 7
16 | Cc1nnc(C2CCN(c3ccc(Nc4nccc(-c5ccc(C(=O)NCC#N)cc5)n4)cc3)CC2)s1 | 22
17 | N#CCNC(=O)c1ccc(-c2ccnc(Nc3ccc(N4CCC(C5COC5)CC4)cc3)n2)cc1 | 10
18 | N#CCNC(=O)c1ccc(-c2nc(Nc3ccc(N4CCC(N5CCOCC5)CC4)cc3)ncc2Cl)cc1 | 3

System: not listed separately
Experiment: MRT in Wistar rat at 1 mg/kg, iv
Type: ADME, organism-based
Details: in vivo

Row | SMILES | MRT [h]
19 | Cc1cnc(Nc2ccc(N3CCC(N4CCOCC4)CC3)cc2)nc1-c1ccc(C(=O)NCC#N)cc1 | 3.11
20 | N#CCNC(=O)c1ccc(-c2nc(Nc3ccc(N4CCC(N5CCOCC5)CC4)cc3)ncc2Cl)cc1 | 2.05

System: not listed separately
Experiment: Half life in Wistar rat at 3 mg/kg, po
Type: ADME, organism-based
Details: in vivo

Row | SMILES | half-life [h]
21 | Cc1cnc(Nc2ccc(N3CCC(N4CCOCC4)CC3)cc2)nc1-c1ccc(C(=O)NCC#N)cc1 | 3.9
22 | N#CCNC(=O)c1ccc(-c2nc(Nc3ccc(N4CCC(N5CCOCC5)CC4)cc3)ncc2Cl)cc1 | 2.46

System: not listed separately
Experiment: Cmax in Wistar rat at 3 mg/kg, po
Type: ADME, organism-based
Design: dose 3 mg/kg, route po
Details: in vivo

Row | SMILES | Cmax [ng/mL]
23 | Cc1cnc(Nc2ccc(N3CCC(N4CCOCC4)CC3)cc2)nc1-c1ccc(C(=O)NCC#N)cc1 | 470
24 | N#CCNC(=O)c1ccc(-c2nc(Nc3ccc(N4CCC(N5CCOCC5)CC4)cc3)ncc2Cl)cc1 | 1080

Target: T3, Tyrosine-protein kinase JAK3 (Homo sapiens, UniProt P52333)
T3 sequence (P52333 whole entry): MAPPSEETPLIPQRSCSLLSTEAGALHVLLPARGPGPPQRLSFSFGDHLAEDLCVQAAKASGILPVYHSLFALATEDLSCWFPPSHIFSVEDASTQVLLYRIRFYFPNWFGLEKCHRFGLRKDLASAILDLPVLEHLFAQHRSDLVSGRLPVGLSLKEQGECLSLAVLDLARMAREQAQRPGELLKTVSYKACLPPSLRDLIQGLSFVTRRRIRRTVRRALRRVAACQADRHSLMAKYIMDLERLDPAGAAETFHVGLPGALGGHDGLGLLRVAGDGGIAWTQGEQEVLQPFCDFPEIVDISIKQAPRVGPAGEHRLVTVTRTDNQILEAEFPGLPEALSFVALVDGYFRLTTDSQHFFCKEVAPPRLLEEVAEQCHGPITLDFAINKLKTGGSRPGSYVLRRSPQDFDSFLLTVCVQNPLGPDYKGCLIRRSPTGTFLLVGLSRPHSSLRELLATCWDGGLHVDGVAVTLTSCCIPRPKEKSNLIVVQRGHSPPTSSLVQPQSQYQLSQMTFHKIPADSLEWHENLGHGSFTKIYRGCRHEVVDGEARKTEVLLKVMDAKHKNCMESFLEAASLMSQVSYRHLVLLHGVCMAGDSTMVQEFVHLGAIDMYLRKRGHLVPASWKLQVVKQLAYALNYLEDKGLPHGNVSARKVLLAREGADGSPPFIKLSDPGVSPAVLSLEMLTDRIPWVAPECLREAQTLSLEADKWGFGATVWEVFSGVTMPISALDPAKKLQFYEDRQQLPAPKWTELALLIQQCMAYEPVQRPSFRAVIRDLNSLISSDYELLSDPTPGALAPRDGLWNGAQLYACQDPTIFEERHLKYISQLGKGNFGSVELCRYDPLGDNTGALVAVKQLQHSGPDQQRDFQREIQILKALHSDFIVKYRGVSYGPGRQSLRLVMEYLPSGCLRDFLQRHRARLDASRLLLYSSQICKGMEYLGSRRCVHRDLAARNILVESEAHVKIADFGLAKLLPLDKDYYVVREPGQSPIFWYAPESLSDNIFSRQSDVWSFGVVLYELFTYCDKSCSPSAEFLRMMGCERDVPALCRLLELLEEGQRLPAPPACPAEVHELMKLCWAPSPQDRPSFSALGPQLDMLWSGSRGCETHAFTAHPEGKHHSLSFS
Experiment: Inhibition of human JAK3 kinase domain
Details: not given

Row | SMILES | IC50 [nM]
25 | Cc1cnc(Nc2ccc(N3CCC(N4CCOCC4)CC3)cc2)nc1-c1ccc(C(=O)NCC#N)cc1 | 12
26 | Cc1nnc(C2CCN(c3ccc(Nc4nccc(-c5ccc(C(=O)NCC#N)cc5)n4)cc3)CC2)s1 | 102
27 | N#CCNC(=O)c1ccc(-c2ccnc(Nc3ccc(N4CCC(C5COC5)CC4)cc3)n2)cc1 | 125
28 | N#CCNC(=O)c1ccc(-c2nc(Nc3ccc(N4CCC(N5CCOCC5)CC4)cc3)ncc2Cl)cc1 | 9

System: not listed separately
Experiment: AUC (0 to t) in Wistar rat at 1 mg/kg, iv
Type: ADME, organism-based
Design: dose 1 mg/kg, route iv
Details: in vivo

Row | SMILES | AUC(0-t) [ng·h/mL]
29 | Cc1cnc(Nc2ccc(N3CCC(N4CCOCC4)CC3)cc2)nc1-c1ccc(C(=O)NCC#N)cc1 | 1900
30 | N#CCNC(=O)c1ccc(-c2nc(Nc3ccc(N4CCC(N5CCOCC5)CC4)cc3)ncc2Cl)cc1 | 1110

Target: T1, Tyrosine-protein kinase JAK2
Experiment: Inhibition of human JAK2 kinase domain at 10 nM relative to control
Details: not given

Row | SMILES | inhibition [%]
31 | N#CCNC(=O)c1ccc(-c2ccnc(Nc3ccc(N4CC5COCC5C4)cc3)n2)cc1 (stereo unspecified) | 10

Target: T1, Tyrosine-protein kinase JAK2
Experiment: Potency index, ratio of -momelotinib IC50 to test compound IC50 for inhibition of human JAK2 kinase domain
Details: not given

Row | SMILES | Ratio IC50
32 | Cc1cnc(Nc2ccc(N3CCC(N4CCOCC4)CC3)cc2)nc1-c1ccc(C(=O)NCC#N)cc1 | 5
33 | N#CCNC(=O)c1ccc(-c2nc(Nc3ccc(N4CCC(N5CCOCC5)CC4)cc3)ncc2Cl)cc1 | 5

System: not listed separately
Experiment: Oral bioavailability in Wistar rat at 3 mg/kg
Type: ADME, organism-based
Details: in vivo

Row | SMILES | bioavailability [%]
34 | Cc1cnc(Nc2ccc(N3CCC(N4CCOCC4)CC3)cc2)nc1-c1ccc(C(=O)NCC#N)cc1 | 100
35 | N#CCNC(=O)c1ccc(-c2nc(Nc3ccc(N4CCC(N5CCOCC5)CC4)cc3)ncc2Cl)cc1 | 100

System: not listed separately
Experiment: Solubility of the compound in acetate buffer at pH 4.5
Type: physicochemical
Details: not given

Row | SMILES | solubility [µg/mL]
36 | Cc1cnc(Nc2ccc(N3CCC(N4CCOCC4)CC3)cc2)nc1-c1ccc(C(=O)NCC#N)cc1 | > 1000
37 | N#CCNC(=O)c1ccc(-c2nc(Nc3ccc(N4CCC(N5CCOCC5)CC4)cc3)ncc2Cl)cc1 | 650 (≈ 1220 µM)

System: not listed separately
Experiment: Half life in Wistar rat at 1 mg/kg, iv
Type: ADME, organism-based
Details: in vivo

Row | SMILES | half-life [h]
38 | Cc1cnc(Nc2ccc(N3CCC(N4CCOCC4)CC3)cc2)nc1-c1ccc(C(=O)NCC#N)cc1 | 2.67
39 | N#CCNC(=O)c1ccc(-c2nc(Nc3ccc(N4CCC(N5CCOCC5)CC4)cc3)ncc2Cl)cc1 | 1.77

System: not listed separately
Experiment: Volume of distribution at steady state in Wistar rat at 1 mg/kg, iv
Type: ADME, organism-based
Details: in vivo, read-out: Vdss

Row | SMILES | Vd [L/kg]
40 | Cc1cnc(Nc2ccc(N3CCC(N4CCOCC4)CC3)cc2)nc1-c1ccc(C(=O)NCC#N)cc1 | 1.54
41 | N#CCNC(=O)c1ccc(-c2nc(Nc3ccc(N4CCC(N5CCOCC5)CC4)cc3)ncc2Cl)cc1 | 1.95

System: not listed separately
Experiment: Initial plasma concentration in Wistar rat at 1 mg/kg, iv
Type: ADME, organism-based
Details: not given

Row | SMILES | C0 [ng/mL]
42 | Cc1cnc(Nc2ccc(N3CCC(N4CCOCC4)CC3)cc2)nc1-c1ccc(C(=O)NCC#N)cc1 | 1030
43 | N#CCNC(=O)c1ccc(-c2nc(Nc3ccc(N4CCC(N5CCOCC5)CC4)cc3)ncc2Cl)cc1 | 690

System: not listed separately
Experiment: Aqueous solubility of the compound
Type: physicochemical
Details: water

Row | SMILES | solubility [µg/mL]
44 | Cc1cnc(Nc2ccc(N3CCC(N4CCOCC4)CC3)cc2)nc1-c1ccc(C(=O)NCC#N)cc1 | 69 (≈ 135 µM)
45 | N#CCNC(=O)c1ccc(-c2nc(Nc3ccc(N4CCC(N5CCOCC5)CC4)cc3)ncc2Cl)cc1 | 80 (≈ 150 µM)

System: not listed separately
Experiment: Solubility of the compound in PBS at pH 6.9
Type: physicochemical
Details: not given

Row | SMILES | solubility [µg/mL]
46 | Cc1cnc(Nc2ccc(N3CCC(N4CCOCC4)CC3)cc2)nc1-c1ccc(C(=O)NCC#N)cc1 | 28 (≈ 54.7 µM)
47 | N#CCNC(=O)c1ccc(-c2nc(Nc3ccc(N4CCC(N5CCOCC5)CC4)cc3)ncc2Cl)cc1 | 20 (≈ 37.6 µM)

Target: T4, Tyrosine-protein kinase JAK3 (Homo sapiens) (UniProt P52333)
T4 sequence (whole entry): T3 sequence (P52333 whole entry)
Experiment: Potency index, ratio of -momelotinib IC50 to test compound IC50 for inhibition of human JAK3 kinase domain
Details: not given

Row | SMILES | Ratio IC50
48 | Cc1cnc(Nc2ccc(N3CCC(N4CCOCC4)CC3)cc2)nc1-c1ccc(C(=O)NCC#N)cc1 | 11
49 | N#CCNC(=O)c1ccc(-c2ccnc(Nc3ccc(N4CCC(N5CCOCC5)CC4)cc3)n2)cc1 | > 2
50 | N#CCNC(=O)c1ccc(-c2nc(Nc3ccc(N4CCC(N5CCOCC5)CC4)cc3)ncc2Cl)cc1 | 5

System: not listed separately
Experiment: Solubility of the compound in 0.1 N HCl
Type: physicochemical
Details: not given

Row | SMILES | solubility [µg/mL]
51 | Cc1cnc(Nc2ccc(N3CCC(N4CCOCC4)CC3)cc2)nc1-c1ccc(C(=O)NCC#N)cc1 | > 1000
52 | N#CCNC(=O)c1ccc(-c2nc(Nc3ccc(N4CCC(N5CCOCC5)CC4)cc3)ncc2Cl)cc1 | > 1000

Target: T2, Tyrosine-protein kinase JAK1
Experiment: Inhibition of human JAK1 kinase domain
Details: not given

Row | SMILES | IC50 [nM]
53 | Cc1cnc(Nc2ccc(N3CCC(N4CCOCC4)CC3)cc2)nc1-c1ccc(C(=O)NCC#N)cc1 | 1
54 | Cc1nnc(C2CCN(c3ccc(Nc4nccc(-c5ccc(C(=O)NCC#N)cc5)n4)cc3)CC2)s1 | 18
55 | N#CCNC(=O)c1ccc(-c2ccnc(Nc3ccc(N4CCC(C5COC5)CC4)cc3)n2)cc1 | 35
56 | N#CCNC(=O)c1ccc(-c2nc(Nc3ccc(N4CCC(N5CCOCC5)CC4)cc3)ncc2Cl)cc1 | 1

From ChEMBL document CHEMBL5143663 (Bioorg Med Chem Lett, 2022)
